Columns and labels:
Assay in all cases: acetylesterase assay, absorbance at […] nm, plate reader
Type in all cases: biochemical
OafA-STM^C-long = target: T1, OafA-STM^C-long (Salmonella enterica, UniProt Q8ZNJ3); details: 10 uM enzyme, 0.5 mM substrate final, 37 C; also acetyl donor for LPS acetylation
T1 construct: periplasmic C-terminal SGNH domain with full SGNHext, residues 366-609; N-terminal His-MBP tag (3C-cleavable) removed; expressed in E. coli Origami

OafB-SPA^C-short = target: T2, OafB-SPA^C-short (Salmonella enterica, UniProt A0A0H2WM30); details: 40 uM enzyme (methods print OafB-STM^C-term), 0.5 mM substrate final, 37 C; also acetyl donor for LPS acetylation
T2 construct: gene SPA0467; periplasmic C-terminal SGNH domain with shortened SGNHext, residues 399-640; codon-optimised gene; N-terminal His-MBP tag (3C-cleavable) removed; expressed in E. coli Origami
T2 sequence (A0A0H2WM30 entry or part of it): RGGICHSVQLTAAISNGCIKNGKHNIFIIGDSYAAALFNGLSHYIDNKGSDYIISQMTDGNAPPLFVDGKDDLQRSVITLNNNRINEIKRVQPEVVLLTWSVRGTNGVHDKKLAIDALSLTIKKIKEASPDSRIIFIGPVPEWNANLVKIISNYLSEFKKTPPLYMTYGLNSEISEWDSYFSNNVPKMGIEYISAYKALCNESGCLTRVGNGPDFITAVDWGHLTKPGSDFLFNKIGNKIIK

OafA-STM^C-short = target: T3, OafA-STM^C-short (Salmonella enterica, UniProt Q8ZNJ3); details: 10 uM enzyme, 0.5 mM substrate final, 37 C; also acetyl donor for LPS acetylation
T3 construct: periplasmic C-terminal SGNH domain with shortened SGNHext, residues 379-609; N-terminal His-MBP tag (3C-cleavable) removed; expressed in E. coli Origami
T3 sequence (Q8ZNJ3 entry or part of it): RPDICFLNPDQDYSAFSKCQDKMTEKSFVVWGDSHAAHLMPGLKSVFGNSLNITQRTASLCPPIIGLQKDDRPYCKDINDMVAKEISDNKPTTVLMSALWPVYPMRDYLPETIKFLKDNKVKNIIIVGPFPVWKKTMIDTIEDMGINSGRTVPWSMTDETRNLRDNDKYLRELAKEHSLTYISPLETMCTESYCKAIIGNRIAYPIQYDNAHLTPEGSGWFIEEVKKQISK

OafB-SPA^C-long = target: T4, OafB-SPA^C-long (Salmonella enterica, UniProt A0A0H2WM30); details: 40 uM enzyme (methods print OafB-STM^C-term), 0.5 mM substrate final, 37 C
T4 construct: gene SPA0467; periplasmic C-terminal SGNH domain with full SGNHext, residues 377-640; codon-optimised gene; N-terminal His-MBP tag (3C-cleavable) removed; expressed in E. coli Origami
T4 sequence (A0A0H2WM30 entry or part of it): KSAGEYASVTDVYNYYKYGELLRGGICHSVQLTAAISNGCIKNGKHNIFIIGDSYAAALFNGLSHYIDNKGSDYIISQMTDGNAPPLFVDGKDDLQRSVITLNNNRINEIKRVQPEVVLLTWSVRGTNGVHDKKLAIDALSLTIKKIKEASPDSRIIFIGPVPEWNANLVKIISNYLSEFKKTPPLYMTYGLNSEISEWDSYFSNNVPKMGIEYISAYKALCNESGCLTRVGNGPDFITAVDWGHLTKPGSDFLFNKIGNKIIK

T1 sequence (Q8ZNJ3 entry or part of it): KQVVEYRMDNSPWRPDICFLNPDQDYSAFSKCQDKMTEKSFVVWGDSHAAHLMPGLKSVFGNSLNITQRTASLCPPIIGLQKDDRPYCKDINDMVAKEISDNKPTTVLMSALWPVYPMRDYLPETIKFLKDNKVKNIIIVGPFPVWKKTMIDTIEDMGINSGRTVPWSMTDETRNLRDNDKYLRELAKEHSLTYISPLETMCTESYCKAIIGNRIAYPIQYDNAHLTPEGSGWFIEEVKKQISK

CC(=O)Oc1ccc([N+](=O)[O-])cc1 [p-nitrophenyl acetate]
acetylesterase assay, absorbance at 405 nm, plate reader (OafA-STM^C-long): all constructs via their ability to hydrolyze the ester substrate p-nitrophenyl acetate (pNP-Ac) | acetylesterase assay, absorbance at 405 nm, plate reader (OafB-SPA^C-short): all constructs via their ability to hydrolyze the ester substrate p-nitrophenyl acetate (pNP-Ac) | acetylesterase assay, absorbance at 405 nm, plate reader (OafA-STM^C-short): all constructs via their ability to hydrolyze the ester substrate p-nitrophenyl acetate (pNP-Ac) | acetylesterase assay, absorbance at 405 nm, plate reader (OafB-SPA^C-long): all constructs via their ability to hydrolyze the ester substrate p-nitrophenyl acetate (pNP-Ac)

— paper PMC7448272, “Acetylation of Surface Carbohydrates in Bacterial Pathogens Requires Coordinated Action of a Two-Domain Membrane-Bound Acyltransferase” (mBio, 2020)
